Source: US10759816B2, “Heterocyclic compounds as RSV inhibitors” (Enanta Pharmaceuticals, Inc., priority 2016, dated 2020)
Read-outs that look alike come from different tables or passages of the source.

Test system: genotype A, "Long" strain RSV
Experiment: RSV-A in vitro cytoprotection assay in HEp-2 cells (ATPlite readout of cell viability)
Format: cell-based, Human respiratory syncytial virus
Details: human respiratory syncytial virus
Summary of the method: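 Cytoprotection measured as ATP-based luminescence (ATPlite) after 4-day incubation of RSV Long-infected HEp-2 cells (8,000/well, 10% FBS DMEM) with 2-fold serial compound dilutions in duplicate. Identically treated virus-free plate gives cytotoxicity; EC50 calculated from viability.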

[1] = HEp-2, HEp-2 cells, genotype A “Long” strain RSV, cytoprotection, read-out: Human RSV-A (“Long” strain) EC50

Structure (SMILES) | EC50 [1] [nM] | EC50 (HEp-2, read-out: Human RSV-A (“Long” strain) EC50) [nM]
Cc1cccc(F)c1NC(=O)c1cc2c(s1)-c1ccccc1N(C(=O)c1cccc(-c3cncn3C3CC3)n1)CC2 [Example 233] | < 400 | 
Cc1cc(-c2cccc(C(=O)N3CCc4cc(C(=O)Nc5c(C)cccc5F)sc4-c4ccccc43)n2)n(C)n1 [Example 234] | < 400 | 
Cc1cccc(F)c1NC(=O)c1cc2c(s1)-c1ccccc1N(C(=O)c1cccc(-c3ccn(C)n3)n1)CC2 [Example 235] | > 800 | 
Cc1cccc(F)c1NC(=O)c1cc2c(s1)-c1ccccc1N(C(=O)c1cccc(-c3ccnn3C(C)C)n1)CC2 [Example 236] | < 400 | 
Cc1cccc(F)c1NC(=O)c1cc2c(s1)-c1ccccc1N(C(=O)c1cccc(-c3ccnn3C)n1)CC2 [Example 237] | < 400 | 
CCn1nccc1-c1cccc(C(=O)N2CCc3cc(C(=O)Nc4c(C)cccc4F)sc3-c3ccccc32)n1 [Example 238] | < 400 | 
Cc1cc(-c2cccc(C(=O)N3CCc4cc(C(=O)Nc5ccccc5N)sc4-c4ccccc43)n2)n(C)n1 [Example 239] | > 800 | 
Cn1ccc(-c2cccc(C(=O)N3CCc4cc(C(=O)Nc5ccccc5N)sc4-c4ccccc43)n2)n1 [Example 240] | > 800 | 
CC(C)n1nccc1-c1cccc(C(=O)N2CCc3cc(C(=O)Nc4ccccc4N)sc3-c3ccccc32)n1 [Example 241] | < 400 | 
Cn1nccc1-c1cccc(C(=O)N2CCc3cc(C(=O)Nc4ccccc4N)sc3-c3ccccc32)n1 [Example 242] | < 400 | 
Cc1cccc(F)c1NC(=O)c1cc2c(s1)-c1ccccc1N(C(=O)c1cccc(-c3c[nH]c4ncccc34)n1)CC2 [Example 243] | < 400 | 
Cc1cccc(F)c1NC(=O)c1cc2c(s1)-c1ccccc1N(C(=O)c1cccc(-c3cnn4ccccc34)n1)CC2 [Example 244] | < 400 | 
Cc1cnc2[nH]cc(-c3cccc(C(=O)N4CCc5cc(C(=O)Nc6c(C)cccc6F)sc5-c5ccccc54)n3)c2c1 [Example 245] | < 400 | 
Cc1ccc2c(-c3cccc(C(=O)N4CCc5cc(C(=O)Nc6c(C)cccc6F)sc5-c5ccccc54)n3)cn(C(=O)OC(C)(C)C)c2c1 [Example 246] | > 800 | 
Cc1ccc2c(-c3cccc(C(=O)N4CCc5cc(C(=O)Nc6c(C)cccc6F)sc5-c5ccccc54)n3)c[nH]c2c1 [Example 247] | < 400 | 
Cc1cccc(F)c1NC(=O)c1cc2c(s1)-c1ccccc1N(C(=O)c1cccc(-c3cn(C(=O)OC(C)(C)C)c4ccc(Cl)cc34)n1)CC2 [Example 248] | > 800 | 
Cc1cccc(F)c1NC(=O)c1cc2c(s1)-c1ccccc1N(C(=O)c1cccc(-c3c[nH]c4ccc(Cl)cc34)n1)CC2 [Example 249] | < 400 | 
Cc1cccc(F)c1NC(=O)c1cc2c(s1)-c1ccccc1N(C(=O)c1cccc(-c3cn(C(=O)OC(C)(C)C)c4c(Cl)cccc34)n1)CC2 [Example 250] | 400 to 800 | 
Cc1cccc(F)c1NC(=O)c1cc2c(s1)-c1ccccc1N(C(=O)c1cccc(-c3c[nH]c4c(Cl)cccc34)n1)CC2 [Example 251] | < 400 | 
Cc1cccc(F)c1NC(=O)c1cc2c(s1)-c1ccccc1N(C(=O)c1cccc(-c3cn(C(=O)OC(C)(C)C)c4c(C)cccc34)n1)CC2 [Example 252] | > 800 | 
Cc1cccc(F)c1NC(=O)c1cc2c(s1)-c1ccccc1N(C(=O)c1cccc(-c3c[nH]c4c(C)cccc34)n1)CC2 [Example 253] | < 400 | 
Cc1ccc2c(c1)c(-c1cccc(C(=O)N3CCc4cc(C(=O)Nc5c(C)cccc5F)sc4-c4ccccc43)n1)cn2[Si](C)(C)C(C)(C)C [Example 254] |  | > 800

Structure (SMILES) | EC50 [1] [nM] | EC50 (HEp-2, read-out: Human RSV-A (“Long” strain) EC50) [nM]
Cc1ccc2[nH]cc(-c3cccc(C(=O)N4CCc5cc(C(=O)Nc6c(C)cccc6F)sc5-c5ccccc54)n3)c2c1 [Example 255] | 400 to 800 | 
Cc1cccc(F)c1NC(=O)c1cc2c(s1)-c1ccccc1N(C(=O)c1cccc(-c3coc4ccccc34)n1)CC2 [Example 256] | < 400 | 
Cc1cccc(F)c1NC(=O)c1cc2c(s1)-c1ccccc1N(C(=O)c1cccc(-c3coc4cccnc34)n1)CC2 [Example 257] | > 800 | 
Cc1cccc(F)c1NC(=O)c1cc2c(s1)-c1ccccc1N(C(=O)c1cccc(-c3coc4ccncc34)n1)CC2 [Example 258] | > 800 | 
Cc1cccc(F)c1NC(=O)c1cc2c(s1)-c1cccc(F)c1N(C(=O)c1cccc(-c3c[nH]c4ncccc34)n1)CC2 [Example 259] | < 400 | 
Cc1cccc(F)c1NC(=O)c1cc2c(s1)-c1ccccc1N(C(=O)c1cccc(-c3conc3C)n1)CC2 [Example 261] | < 400 | 
Cc1cccc(F)c1NC(=O)c1cc2c(s1)-c1ccccc1N(C(=O)c1cccc(-c3cnoc3C)n1)CC2 [Example 262] | > 800 | 
Cc1cccc(F)c1NC(=O)c1cc2c(s1)-c1cc(F)ccc1N(C(=O)c1cccc(-c3c[nH]nc3C3CC3)n1)CC2 [Example 263] | < 400 | 
COc1ccc(-c2cccc(C(=O)N3CCc4cc(C(=O)Nc5c(C)cccc5F)sc4-c4ccccc43)n2)cn1 [Example 264] | > 800 | 
Cc1cccc(F)c1NC(=O)c1cc2c(s1)-c1ccccc1N(C(=O)c1cccc(-c3c[nH]nc3/C=C/c3ccccc3)n1)CC2 [Example 265] | > 800 | 
Cc1cccc(F)c1NC(=O)c1cc2c(s1)-c1ccccc1N(C(=O)c1ccc(-c3c[nH]c4ncccc34)cc1)CC2 [Example 266] | > 800 | 
COC(=O)n1cc(-c2ccc(C(=O)N3CCc4cc(C(=O)Nc5c(C)cccc5F)sc4-c4ccccc43)cc2)c2cccnc21 [Example 267] | > 800 | 
Cc1cccc(F)c1NC(=O)c1cc2c(s1)-c1ccccc1N(C(=O)c1ccc(-c3cn(S(C)(=O)=O)c4ncccc34)cc1)CC2 [Example 268] | > 800 | 
Cc1cccc(F)c1NC(=O)c1cc2c(s1)-c1ccccc1N(C(=O)c1ccc(-c3c[nH]nc3C)cc1)CC2 [Example 269] | > 800 | 
Cc1cc(-c2ccc(C(=O)N3CCc4cc(C(=O)Nc5c(C)cccc5F)sc4-c4ccccc43)cc2)n[nH]1 [Example 270] | > 800 | 
Cc1cc(-c2ccc(C(=O)N3CCc4cc(C(=O)Nc5c(C)cccc5F)sc4-c4ccccc43)cc2)n(S(C)(=O)=O)n1 [Example 271] | > 800 | 
Cc1cccc(F)c1NC(=O)c1cc2c(s1)-c1ccccc1N(C(=O)c1ccc(-c3c[nH]c4ccccc34)cc1)CC2 [Example 272] | > 800 | 
CCn1nccc1-c1cccc(C(=O)N2CCc3cc(C(=O)Nc4c(C)cccc4F)oc3-c3ccccc32)n1 [Example 273] | > 800 | 
Cc1cccc(F)c1NC(=O)c1cc2c(o1)-c1ccccc1N(C(=O)c1cccc(-c3c[nH]c4ncccc34)n1)CC2 [Example 274] | < 400 | 
Cc1cccc(F)c1NC(=O)c1cc2c(o1)-c1ccccc1N(C(=O)c1cccc(-c3c[nH]nc3C3CC3)n1)CC2 [Example 275] | < 400 | 
O=C(NC1CC1)c1cc2c(s1)-c1ccccc1N(C(=O)c1cccc(N3CCOC[C@@H]3c3ccccc3)n1)CC2 [Example 276] | > 800 | 
O=C(NC1CC1)c1cc2c(s1)-c1ccccc1N(C(=O)c1cccc(N3CCOC[C@H]3c3ccccc3)n1)CC2 [Example 277] | > 800 | 

Structure (SMILES) | EC50 [1] [nM] | EC50 (HEp-2, read-out: Human RSV-A (“Long” strain) EC50) [nM]
O=C(NC1CC1)c1cc2c(s1)-c1ccccc1N(C(=O)c1cccc(N3CCOc4ccc(F)cc4C3)n1)CC2 [Example 278] | < 400 | 
O=C(NC1CC1)c1cc2c(s1)-c1ccccc1N(C(=O)c1cccc(N3CCOc4ccc(Cl)cc4C3)n1)CC2 [Example 279] | < 400 | 
COc1ccc2c(c1)CN(c1cccc(C(=O)N3CCc4cc(C(=O)NC5CC5)sc4-c4ccccc43)n1)CCO2 [Example 280] | < 400 | 
O=C(NC1CC1)c1cc2c(s1)-c1ccccc1N(C(=O)c1cccc(N3CCOc4cc(Br)ccc4C3)n1)CC2 [Example 281] | < 400 | 
COc1ccc2c(c1)OCCN(c1cccc(C(=O)N3CCc4cc(C(=O)NC5CC5)sc4-c4ccccc43)n1)C2 [Example 282] | < 400 | 
O=C(NC1CC1)c1cc2c(s1)-c1ccccc1N(C(=O)c1cccc(N3CCS(=O)(=O)c4ccccc4C3)n1)CC2 [Example 283] | < 400 | 
O=C(NC1CC1)c1cc2c(s1)-c1ccccc1N(C(=O)c1cccc(N3CCOCC4(CCOCC4)C3)n1)CC2 [Example 284] | < 400 | 
O=C(NC1CC1)c1cc2c(s1)-c1ccccc1N(C(=O)c1cccc(N3CCOCC(C(=O)N4CCOCC4)C3)n1)CC2 (stereo not shown) [Example 285] | > 800 | 
CN(Cc1ccccn1)c1cccc(C(=O)N2CCc3cc(C(=O)NC4CC4)sc3-c3ccccc32)n1 [Example 286] | > 800 | 
COc1ccccc1CNc1cccc(C(=O)N2CCc3cc(C(=O)NC4CC4)sc3-c3ccccc32)n1 [Example 287] | > 800 | 
O=C(NC1CC1)c1cc2c(s1)-c1ccccc1N(C(=O)c1cccc(NCc3ccccn3)n1)CC2 [Example 288] | > 800 | 
COc1ccccc1CN(C)c1cccc(C(=O)N2CCc3cc(C(=O)NC4CC4)sc3-c3ccccc32)n1 [Example 289] | > 800 | 
O=C(NC1CC1)c1cc2c(s1)-c1ccccc1N(C(=O)c1cccc(N[C@@H]3CCOC3)n1)CC2 [Example 290] | > 800 | 
O=C(NC1CC1)c1cc2c(s1)-c1ccccc1N(C(=O)c1cccc(NCC3CCOC3)n1)CC2 (stereo not shown) [Example 291] | > 800 | 
COc1ccccc1[C@H](C)Nc1cccc(C(=O)N2CCc3cc(C(=O)NC4CC4)sc3-c3ccccc32)n1 [Example 292] | > 800 | 
CC(C)(Nc1cccc(C(=O)N2CCc3cc(C(=O)NC4CC4)sc3-c3ccccc32)n1)c1ccccn1 [Example 293] | > 800 | 
COc1ccc(CN(C)c2cccc(C(=O)N3CCc4cc(C(=O)NC5CC5)sc4-c4ccccc43)n2)cc1 [Example 294] | > 800 | 
CN(Cc1cccnc1)c1cccc(C(=O)N2CCc3cc(C(=O)NC4CC4)sc3-c3ccccc32)n1 [Example 295] | > 800 | 
COc1cccc(CN(C)c2cccc(C(=O)N3CCc4cc(C(=O)NC5CC5)sc4-c4ccccc43)n2)c1 [Example 296] | > 800 | 
O=C(NC1CC1)c1cc2c(s1)-c1ccccc1N(C(=O)c1ccc3ccc(N4CCOCC4)nc3c1)CC2 [Example 297] | > 800 | 
